Key:
[1] = molecular target: Potassium voltage-gated channel subfamily KQT member 2 (Mus musculus) (UniProt Q9Z351); experiment: Relative efficacy as ratio of maximal current amplitudes for compound and reference; assay type: functional
[2] = molecular target: Potassium voltage-gated channel subfamily KQT member 2 (Mus musculus, UniProt Q9Z351); experiment: Effect on outward potassium currents in whole-cell patch clamp assay of HEK 293 cells expressing cloned mouse KCNQ2 channel at -40 mV; assay type: functional, cell-based, HEK293
Potassium voltage-gated channel subfamily KQT member 2, sequence (Q9Z351 whole entry): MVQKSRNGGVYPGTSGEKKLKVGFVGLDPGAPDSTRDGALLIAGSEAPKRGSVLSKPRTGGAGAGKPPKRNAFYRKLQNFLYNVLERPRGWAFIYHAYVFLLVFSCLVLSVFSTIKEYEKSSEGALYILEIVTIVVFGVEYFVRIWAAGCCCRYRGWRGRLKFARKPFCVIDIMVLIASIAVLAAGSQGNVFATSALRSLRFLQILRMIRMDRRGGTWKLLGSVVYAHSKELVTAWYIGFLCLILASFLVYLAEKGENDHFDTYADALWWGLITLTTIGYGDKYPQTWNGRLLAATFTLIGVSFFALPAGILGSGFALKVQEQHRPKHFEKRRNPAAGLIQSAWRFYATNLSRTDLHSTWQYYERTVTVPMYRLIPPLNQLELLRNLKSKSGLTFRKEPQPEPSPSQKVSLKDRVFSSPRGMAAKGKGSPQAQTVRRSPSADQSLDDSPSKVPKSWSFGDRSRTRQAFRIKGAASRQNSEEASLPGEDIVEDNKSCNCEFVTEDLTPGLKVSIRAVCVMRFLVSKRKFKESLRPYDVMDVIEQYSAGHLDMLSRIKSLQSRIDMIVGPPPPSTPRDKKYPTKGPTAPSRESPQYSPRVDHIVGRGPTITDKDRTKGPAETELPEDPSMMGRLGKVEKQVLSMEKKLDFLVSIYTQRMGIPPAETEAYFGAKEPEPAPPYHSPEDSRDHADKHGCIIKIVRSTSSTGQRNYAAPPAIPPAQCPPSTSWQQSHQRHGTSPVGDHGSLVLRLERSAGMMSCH

Potassium voltage-gated channel subfamily KQT member 2 (Mus musculus), sequence (Q9Z351 whole entry): as above

| Compound | E/Eref [1] | EC50 [2] |
| --- | --- | --- |
| CCOC(=O)Nc1ccc(NCc2ccc(F)cc2)cc1N | 1.6 | – |
| C[C@H](NC(=O)/C=C/c1ccccc1F)c1cccc(-n2cncn2)c1 | 1.2 | 330 nM |
| C[C@H](NC(=O)/C=C/c1ccccc1F)c1cccc(-c2ccccn2)c1 | 1.8 | 1200 nM |
| C[C@H](NC(=O)/C=C/c1ccccc1F)c1cccc(-c2ccc(F)nc2)c1 | 0.85 | 10 nM |
| C[C@H](NC(=O)/C=C/c1ccccc1F)c1cccc(-n2cccn2)c1 | 1.6 | 120 nM |
| C[C@H](NC(=O)/C=C/c1ccccc1F)c1ccc2c(c1)N(CC1CC1)CCO2 | 1.83 | – |
| C[C@H](NC(=O)/C=C/c1ccccc1F)c1cccc(-c2cnccn2)c1 | 1.57 | 370 nM |
| C[C@H](NC(=O)/C=C/c1ccccc1Cl)c1ccc2c(c1)OCO2 | 1.1 | 20 nM |
| C[C@H](NC(=O)/C=C/c1ccccc1)c1cccc(-n2cccn2)c1 | 1.9 | 1200 nM |
| C[C@H](NC(=O)/C=C/c1ccccc1)c1cccc(N2CCOCC2)c1 | 1.4 | 3200 nM |

Reference: ChEMBL document CHEMBL1142835, “(S,E)-N-[1-(3-heteroarylphenyl)ethyl]-3-(2-fluorophenyl)acrylamides: synthesis and KCNQ2 potassium channel opener activity” (Bioorg Med Chem Lett, 2005)
